Assay results reported in ChEMBL document CHEMBL3774317, “Design and synthesis of novel tamoxifen analogues that avoid CYP2D6 metabolism” (Eur J Med Chem, 2016).

Tests used:
NCI-H522 [1] = experiment: Cytotoxicity against human NCI-H522 cells assessed as cell growth at 50 nM after 48 hrs by SRB assay; type: functional; conditions: NCI-H522, 48 h, read-out: Activity
A549 [2] = experiment: Cytotoxicity against human A549 cells assessed as cell growth at 0.5 uM after 48 hrs by SRB assay; type: functional; conditions: A549, 48 h, read-out: Activity
U-251 [3] = experiment: Cytotoxicity against human U251 cells assessed as cell growth at 50 uM after 48 hrs by SRB assay; type: functional; conditions: U-251, 48 h, read-out: Activity
[4] = Cytotoxicity against human SKOV3 cells assessed as cell growth at 50 uM after 48 hrs by SRB assay; type: functional; conditions: SK-OV-3, 48 h, read-out: Activity
[5] = Cytotoxicity against human Hs 578T cells assessed as cell growth at 50 uM after 48 hrs by SRB assay; type: functional; conditions: read-out: Activity
T47D = experiment: Cytotoxicity against human T47D cells assessed as cell growth at 50 uM after 48 hrs by SRB assay; type: functional; conditions: read-out: Activity
SK-MEL-2 [6] = experiment: Cytotoxicity against human SK-MEL-2 cells assessed as cell growth at 0.5 uM after 48 hrs by SRB assay; type: functional; conditions: SK-MEL-2, 48 h, read-out: Activity
CCRF-CEM = experiment: Cytotoxicity against human CCRF-CEM cells assessed as cell growth at 5 uM after 48 hrs by SRB assay; type: functional; conditions: read-out: Activity
A549 [7] = experiment: Cytotoxicity against human A549 cells assessed as cell growth at 5 nM after 48 hrs by SRB assay; type: functional; conditions: A549, 48 h, read-out: Activity
NCI-H322M [8] = experiment: Cytotoxicity against human NCI-H322M cells assessed as cell growth at 5 nM after 48 hrs by SRB assay; type: functional; conditions: read-out: Activity
NCI-H522 [9] = experiment: Cytotoxicity against human NCI-H522 cells assessed as cell growth at 5 nM after 48 hrs by SRB assay; type: functional; conditions: NCI-H522, 48 h, read-out: Activity
[10] = Cytotoxicity against human HCT116 cells assessed as cell growth at 5 nM after 48 hrs by SRB assay; type: functional; conditions: HCT-116, 48 h, read-out: Activity
[11] = Cytotoxicity against human LOXIMVI cells assessed as cell growth at 5 nM after 48 hrs by SRB assay; type: functional; conditions: LOX IMVI, read-out: Activity
SK-MEL-2 [12] = experiment: Cytotoxicity against human SK-MEL-2 cells assessed as cell growth at 5 nM after 48 hrs by SRB assay; type: functional; conditions: SK-MEL-2, 48 h, read-out: Activity
[13] = Cytotoxicity against human Caki1 cells assessed as cell growth at 5 nM after 48 hrs by SRB assay; type: functional; conditions: CAKI-1, 48 h, read-out: Activity
[14] = Cytotoxicity against human UACC62 cells assessed as cell growth at 5 uM after 48 hrs by SRB assay; type: functional; conditions: UACC-62, 48 h, read-out: Activity
A498 [15] = experiment: Cytotoxicity against human A498 cells assessed as cell growth at 5 uM after 48 hrs by SRB assay; type: functional; conditions: A498, 48 h, read-out: Activity
[16] = Cytotoxicity against human BT549 cells assessed as cell growth at 5 uM after 48 hrs by SRB assay; type: functional; conditions: BT-549, 48 h, read-out: Activity
[17] = Cytotoxicity against human HOP62 cells assessed as cell growth at 50 uM after 48 hrs by SRB assay; type: functional; conditions: HOP-62, 48 h, read-out: Activity
NCI-H322M [18] = experiment: Cytotoxicity against human NCI-H322M cells assessed as cell growth at 50 uM after 48 hrs by SRB assay; type: functional; conditions: read-out: Activity
U-251 [19] = experiment: Cytotoxicity against human U251 cells assessed as cell growth at 10^-7 M after 48 hrs by SRB assay; type: functional; conditions: U-251, 48 h, read-out: Activity
[20] = Cytotoxicity against human OVCAR4 cells assessed as cell growth at […] after 48 hrs by SRB assay; type: functional; conditions: OVCAR-4, 48 h, read-out: Activity
[21] = Cytotoxicity against human Hs 578T cells assessed as cell growth at 10^-7 M after 48 hrs by SRB assay; type: functional; conditions: read-out: Activity
K562 = experiment: Cytotoxicity against human K562 cells assessed as cell growth at 10^-6 M after 48 hrs by SRB assay; type: functional; conditions: K562, 48 h, read-out: Activity
[22] = Cytotoxicity against human PC3 cells assessed as cell growth at 10^-4 M after 48 hrs by SRB assay; type: functional; conditions: PC-3, 48 h, read-out: Activity
MDA-MB-231 = experiment: Cytotoxicity against human MDA-MB-231 cells assessed as cell growth at 10^-4 M after 48 hrs by SRB assay; type: functional; conditions: MDA-MB-231, 48 h, read-out: Activity
[23] = Cytotoxicity against human BT549 cells assessed as cell growth at 10^-4 M after 48 hrs by SRB assay; type: functional; conditions: BT-549, 48 h, read-out: Activity
M14 = experiment: Cytotoxicity against human M14 cells assessed as cell growth at 10^-6 M after 48 hrs by SRB assay; type: functional; conditions: M14, 48 h, read-out: Activity
[24] = Cytotoxicity against human TK10 cells assessed as cell growth at 10^-6 M after 48 hrs by SRB assay; type: functional; conditions: TK-10, 48 h, read-out: Activity
NCI-H226 = experiment: Cytotoxicity against human NCI-H226 cells assessed as cell growth at 10^-5 M after 48 hrs by SRB assay; type: functional; conditions: NCI-H226, 48 h, read-out: Activity
NCI-H322M [25] = experiment: Cytotoxicity against human NCI-H322M cells assessed as cell growth at 10^-5 M after 48 hrs by SRB assay; type: functional; conditions: read-out: Activity
[26] = Cytotoxicity against human HCT116 cells assessed as cell growth at 10^-8 M after 48 hrs by SRB assay; type: functional; conditions: HCT-116, 48 h, read-out: Activity
SK-MEL-5 = experiment: Cytotoxicity against human SK-MEL-5 cells assessed as cell growth at 10^-8 M after 48 hrs by SRB assay; type: functional; conditions: SK-MEL-5, 48 h, read-out: Activity
[27] = Cytotoxicity against human SKOV3 cells assessed as cell growth at 10^-8 M after 48 hrs by SRB assay; type: functional; conditions: SK-OV-3, 48 h, read-out: Activity
[28] = Cytotoxicity against human UACC257 cells assessed as cell growth at 10^-5 M after 48 hrs by SRB assay; type: functional; conditions: UACC-257, 48 h, read-out: Activity
[29] = Cytotoxicity against human SKOV3 cells assessed as cell growth at 10^-5 M after 48 hrs by SRB assay; type: functional; conditions: SK-OV-3, 48 h, read-out: Activity
A498 [30] = experiment: Cytotoxicity against human A498 cells assessed as cell growth at 10^-5 M after 48 hrs by SRB assay; type: functional; conditions: A498, 48 h, read-out: Activity
SN12C = experiment: Cytotoxicity against human SN12C cells assessed as cell growth at 10^-5 M after 48 hrs by SRB assay; type: functional; conditions: read-out: Activity
[31] = Cytotoxicity against human TK10 cells assessed as cell growth at 10^-5 M after 48 hrs by SRB assay; type: functional; conditions: TK-10, 48 h, read-out: Activity
A549 [32] = experiment: Cytotoxicity against human A549 cells assessed as cell growth at 10^-4 M after 48 hrs by SRB assay; type: functional; conditions: A549, 48 h, read-out: Activity
NCI-H460 = experiment: Cytotoxicity against human NCI-H460 cells assessed as cell growth at 10^-4 M after 48 hrs by SRB assay; type: functional; conditions: NCI-H460, 48 h, read-out: Activity
[33] = Cytotoxicity against human SF539 cells assessed as cell growth at 10^-4 M after 48 hrs by SRB assay; type: functional; conditions: SF-539, 48 h, read-out: Activity
Estrogen receptor beta = Estrogen receptor beta (Homo sapiens, UniProt Q92731)
Estrogen receptor beta, sequence (Q92731 whole entry): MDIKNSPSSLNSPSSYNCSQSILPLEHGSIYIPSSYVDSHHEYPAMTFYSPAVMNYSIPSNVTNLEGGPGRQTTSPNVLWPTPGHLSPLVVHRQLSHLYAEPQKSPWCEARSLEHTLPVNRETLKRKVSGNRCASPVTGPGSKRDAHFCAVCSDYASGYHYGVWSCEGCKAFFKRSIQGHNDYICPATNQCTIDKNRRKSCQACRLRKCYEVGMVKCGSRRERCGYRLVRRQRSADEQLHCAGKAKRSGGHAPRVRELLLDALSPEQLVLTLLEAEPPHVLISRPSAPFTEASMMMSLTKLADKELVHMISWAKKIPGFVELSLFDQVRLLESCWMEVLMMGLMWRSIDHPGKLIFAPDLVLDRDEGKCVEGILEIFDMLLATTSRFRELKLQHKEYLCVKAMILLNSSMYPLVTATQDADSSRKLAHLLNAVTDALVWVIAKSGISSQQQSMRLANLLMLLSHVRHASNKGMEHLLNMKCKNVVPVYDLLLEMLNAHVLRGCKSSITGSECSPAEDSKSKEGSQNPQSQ
Description: Displacement of [3H]-E2 from human ER-beta incubated for 16 to 20 hrs by liquid scintillation counting analysis

CCCCCCCCCC(=O)Oc1ccc(/C(=C(/C)c2ccccc2)c2ccc(OCCN3CCCC3)cc2)cc1
growth at 0.05 µM (NCI-H522 [1]): 98%
growth at 0.5 µM (A549 [2]): 96%
growth at 50 µM (U-251 [3]): -89%
growth at 50 µM [4]: -88%
growth at 50 µM [5]: -18%
growth at 50 µM (T47D): -61%
growth at 0.5 µM (SK-MEL-2 [6]): 99%
growth at 5 µM (CCRF-CEM): 88%
growth at 0.005 µM (A549 [7]): 101%
growth at 0.005 µM (NCI-H322M [8]): 94%
growth at 0.005 µM (NCI-H522 [9]): 101%
growth at 0.005 µM [10]: 98%
growth at 0.005 µM [11]: 97%
growth at 0.005 µM (SK-MEL-2 [12]): 101%
growth at 0.005 µM [13]: 88%
growth at 5 µM [14]: 100%
growth at 5 µM (A498 [15]): 64%
growth at 5 µM [16]: 85%
growth at 50 µM [17]: -78%
growth at 50 µM (NCI-H322M [18]): -86%

C/C(=C(/c1ccc(O)cc1)c1ccc(OCCN2CCCC2)cc1)c1ccccc1
growth at 0.1 µM (U-251 [19]): 100%
growth at 0.1 µM [20]: 95%
growth at 0.1 µM [21]: 101%
growth at 1 µM (K562): 81%
growth at 100 µM [22]: -96%
growth at 100 µM (MDA-MB-231): -71%
growth at 100 µM [23]: -100%
growth at 1 µM (M14): 91%
growth at 1 µM [24]: 95%
growth at 10 µM (NCI-H226): 56%
growth at 10 µM (NCI-H322M [25]): 34%
growth at 0.01 µM [26]: 97%
growth at 0.01 µM (SK-MEL-5): 101%
growth at 0.01 µM [27]: 88%
growth at 10 µM [28]: -71%
growth at 10 µM [29]: 13%
growth at 10 µM (A498 [30]): -5%
growth at 10 µM (SN12C): 48%
growth at 10 µM [31]: 27%
growth at 100 µM (A549 [32]): -96%
growth at 100 µM (NCI-H460): -92%
growth at 100 µM [33]: -86%
IC50 (Estrogen receptor beta): 0.04 µM
